Test results from patent publication US20230398095A1, “THERAPEUTIC AGENT FOR TREATMENT OF AGE-RELATED MACULAR DEGENERATION” (priority 2022, published 2023).

Test system: Human Tenon's capsule fibroblasts (HTCF)
Experiment: Oxidative stressor dosage curve, cell metabolic activity (MTT) of HTCF
Format: cell-based
Settings: one-hour incubation, dose-dependent, n=4
Method: The following preferred method was utilized in conducting the experiment: • 1) Culture cells (90% confluence) • 2) Load 5×10^4 cells/well in 24-well plates • 3) Change to serum-free medium overnight • 4) Treat cells • 5) Measure cell metabolic activity (MTT) or % cytotoxicity (LDH) • 6) Normalize results • 7) Replicate experiment with cell lines from different patients • 8) Conduct statistical analysis
1. Treat cells with serum free medium and tert-butyl hydroperoxide (t-BOOH) at 0 mM (VC), […], 0.1 mM, 0.5 mM, 1 mM and 2 mM for 30 min, 1 h, 2 h, 3 h
2. Measure cell metabolic activity with 3-(4,5-dimethylthiazol-2-yl)-2,5-diphenyltetrazolium bromide (MTT) assay
FIGS. 5A-5D show the cell metabolic activity of HTCF cells in response to treatment with tert-butyl hydroperoxide (t-BOOH).
Dose-dependent effect of a one-hour incubation.

`CC(C)(C)OO` [tert-butyl hydroperoxide (t-BOOH), Tert-butyl hydroperoxide] was tested, and the “cell metabolic activity versus control sample” value was “significant effect versus the control sample”.
